Measured values published in ChEMBL document CHEMBL4732247, “Discovery of A031 as effective proteolysis targeting chimera (PROTAC) androgen receptor (AR) degrader for the treatment of prostate cancer” (Eur J Med Chem, 2021).
Active and inactive are the calls of the source. The rule behind the calls is not given here.

Key:
VCaP [1] = experiment: Cytotoxicity against human VCaP cells assessed as growth inhibition at 0.8 uM after 4 days by CCK8 assay relative to control; type: functional; conditions: 96 h, time 4 day, read-out: GI
VCaP [2] = experiment: Cytotoxicity against human VCaP cells assessed as growth inhibition at 4 uM after 4 days by CCK8 assay relative to control; type: functional; conditions: 96 h, time 4 day, read-out: GI
VCaP [3] = experiment: Cytotoxicity against human VCaP cells assessed as growth inhibition after 4 days by CCK8 assay; type: functional, cell-based; conditions: dose 0.032-4 µM, time 4.0 day
VCaP [4] = experiment: Cytotoxicity against human VCaP cells assessed as growth inhibition at 0.25 uM after 4 days by CCK8 assay relative to control; type: functional; conditions: 96 h, time 4 day, read-out: GI
VCaP [5] = experiment: Cytotoxicity against human VCaP cells assessed as growth inhibition at 0.125 uM after 4 days by CCK8 assay relative to control; type: functional; conditions: 96 h, time 4 day, read-out: GI
VCaP [6] = experiment: Cytotoxicity against human VCaP cells assessed as growth inhibition at 0.5 uM after 4 days by CCK8 assay relative to control; type: functional; conditions: 96 h, time 4 day, read-out: GI
VCaP [7] = experiment: Cytotoxicity against human VCaP cells assessed as growth inhibition at 1 uM after 4 days by CCK8 assay relative to control; type: functional; conditions: 96 h, time 4 day, read-out: GI
[8] = Cmax in Sprague-Dawley rat […] at 1 mg/kg, iv measured up to 8 hrs by HPLC-MS analysis; type: ADME, organism-based; set-up: route intravenous, dose 1 mg/kg, time <=8; conditions: in vivo
[9] = target: T1, von Hippel-Lindau disease tumor suppressor/Androgen receptor (Homo sapiens) (UniProt P10275+P40337); experiment: Protac activity at VHL3/AR in human VCAP cells assessed as induction of AR degradation at 2 uM after 2 hrs in presence of VHL-3 by western blot analysis; type: cell-based
[10] = target: T1, von Hippel-Lindau disease tumor suppressor/Androgen receptor (Homo sapiens); experiment: Protac activity at VHL3/AR in human VCAP cells assessed as induction of AR degradation at 2 uM by western blot analysis; type: cell-based; conditions: time 2-4.5 hrs, TDE = time-dependent effect
[11] = Toxicity in AB zebra fish assessed as toxic phenotype at 6.25 to 25 uM after 5 days relative to control; set-up: species or system Danio rerio; conditions: zebrafish, 120 h, dose 6.25-25 µM, time 5 day
[12] = Half life in Sprague-Dawley rat […] at 1 mg/kg, iv measured up to 8 hrs by HPLC-MS analysis; type: ADME, organism-based; conditions: in vivo
VCaP [13] = experiment: Antitumour activity against human VcaP cells xenografted in AB zebra fish assessed as tumour growth inhibition at 2.8 uM after 5 days by […] dye based fluorescence microscopic method; type: functional; conditions: 120 h, time 5 day, read-out: TGI
VCaP [14] = experiment: Antitumour activity against human VcaP cells xenografted in AB zebra fish assessed as tumour growth inhibition at 8.3 uM after 5 days by […] dye based fluorescence microscopic method; type: functional; conditions: 120 h, time 5 day, read-out: TGI
VCaP [15] = experiment: Antitumour activity against human VcaP cells xenografted in AB zebra fish assessed as tumour growth inhibition at 25 uM after 5 days by […] dye based fluorescence microscopic method; type: functional; conditions: 120 h, time 5 day, read-out: TGI
[16] = AUC in Sprague-Dawley rat […] at 1 mg/kg, iv measured up to 8 hrs by HPLC-MS analysis; type: ADME, organism-based; set-up: route intravenous, dose 1 mg/kg, time <=8; conditions: in vivo
[17] = target: T1, von Hippel-Lindau disease tumor suppressor/Androgen receptor (Homo sapiens); experiment: Protac activity at VHL3/AR in human VCAP cells assessed as induction of AR degradation at 2 uM after 4.5 hrs by western blot analysis relative to control; type: cell-based
[18] = Toxicity in AB zebra fish assessed as maximum non-toxic concentration after 5 days; set-up: species or system Danio rerio; conditions: zebrafish, time 5 day, read-out: MTC
[19] = target: T1, von Hippel-Lindau disease tumor suppressor/Androgen receptor (Homo sapiens); experiment: Protac activity at VHL3/AR in human VCAP cells assessed as induction of AR degradation at 2 uM after 2 hrs by western blot analysis relative to control; type: cell-based
[20] = target: T1, von Hippel-Lindau disease tumor suppressor/Androgen receptor (Homo sapiens); experiment: Protac activity at VHL3/AR in human VCAP cells assessed as induction of AR degradation at 2 uM after 2 hrs in presence of proteasome inhibitor MG132 by western blot analysis relative to control; type: cell-based
[21] = Toxicity in AB zebra fish assessed as obvious precipitation at 50 to 100 uM after 5 days; set-up: species or system Danio rerio; conditions: zebrafish, 120 h, dose 50-100 µM, time 5 day
[22] = Toxicity in AB zebra fish assessed as mortality rate at 6.25 to 25 uM after 5 days relative to control; set-up: species or system Danio rerio; conditions: zebrafish, dose 6.25-25 µM, time 5 day
[23] = target: T1, von Hippel-Lindau disease tumor suppressor/Androgen receptor (Homo sapiens); experiment: Protac activity at VHL3//AR in human VCAP cells assessed as induction of AR degradation at 2 uM after 2 hrs in presence of E1 inhibitor MLN4924 by western blot analysis relative to control; type: cell-based
VCaP [24] = experiment: Cytotoxicity against human VCaP cells assessed as growth inhibition at 0.16 uM after 4 days by CCK8 assay relative to control; type: functional; conditions: 96 h, time 4 day, read-out: GI
VCaP [25] = experiment: Cytotoxicity against human VCaP cells assessed as growth inhibition at 0.032 uM after 4 days by CCK8 assay relative to control; type: functional; conditions: 96 h, time 4 day, read-out: GI
[26] = Toxicity in AB zebra fish assessed as mortality rate at 5 uM after 5 days relative to control; set-up: species or system Danio rerio; conditions: zebrafish, time 5 day
[27] = Toxicity in AB zebra fish assessed as mortality rate at 10 to 200 uM after 5 days relative to control; set-up: species or system Danio rerio; conditions: zebrafish, dose 10-200 µM, time 5 day
[28] = Toxicity in AB zebra fish assessed as rolled over at 5 uM after 5 days relative to control; set-up: species or system Danio rerio; conditions: zebrafish, 120 h, time 5 day
VCaP [29] = experiment: Antitumour activity against human VcaP cells xenografted in AB zebra fish assessed as tumour growth inhibition at 5 uM after 5 days by CM-D11 dye based fluorescence microscopic method; conditions: 120 h, read-out: TGI

T1 sequence (P10275 whole entry, looked up): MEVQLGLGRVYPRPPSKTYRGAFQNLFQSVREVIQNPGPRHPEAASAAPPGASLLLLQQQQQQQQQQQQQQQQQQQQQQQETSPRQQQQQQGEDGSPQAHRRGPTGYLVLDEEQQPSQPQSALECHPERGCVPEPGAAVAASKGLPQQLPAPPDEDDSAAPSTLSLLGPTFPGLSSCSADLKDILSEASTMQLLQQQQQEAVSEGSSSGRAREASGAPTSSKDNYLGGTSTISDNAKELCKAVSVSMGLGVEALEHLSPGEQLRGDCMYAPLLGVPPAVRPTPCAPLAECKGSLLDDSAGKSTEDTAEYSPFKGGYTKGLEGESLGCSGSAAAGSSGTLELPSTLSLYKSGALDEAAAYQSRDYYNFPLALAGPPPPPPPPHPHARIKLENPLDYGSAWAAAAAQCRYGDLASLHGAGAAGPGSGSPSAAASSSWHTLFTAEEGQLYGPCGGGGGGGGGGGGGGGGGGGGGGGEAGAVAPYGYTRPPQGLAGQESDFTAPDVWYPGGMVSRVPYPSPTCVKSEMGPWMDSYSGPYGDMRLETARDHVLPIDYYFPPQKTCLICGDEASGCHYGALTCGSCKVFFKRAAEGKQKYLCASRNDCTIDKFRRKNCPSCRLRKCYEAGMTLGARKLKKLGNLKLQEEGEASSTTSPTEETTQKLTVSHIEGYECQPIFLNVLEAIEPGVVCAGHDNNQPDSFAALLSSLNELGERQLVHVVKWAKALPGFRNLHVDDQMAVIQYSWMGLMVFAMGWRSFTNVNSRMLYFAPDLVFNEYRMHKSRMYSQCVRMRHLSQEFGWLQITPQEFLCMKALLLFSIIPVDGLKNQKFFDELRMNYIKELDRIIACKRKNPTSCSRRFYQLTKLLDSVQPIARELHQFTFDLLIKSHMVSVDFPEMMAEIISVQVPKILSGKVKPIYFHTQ
T1 sequence (P40337 whole entry, looked up): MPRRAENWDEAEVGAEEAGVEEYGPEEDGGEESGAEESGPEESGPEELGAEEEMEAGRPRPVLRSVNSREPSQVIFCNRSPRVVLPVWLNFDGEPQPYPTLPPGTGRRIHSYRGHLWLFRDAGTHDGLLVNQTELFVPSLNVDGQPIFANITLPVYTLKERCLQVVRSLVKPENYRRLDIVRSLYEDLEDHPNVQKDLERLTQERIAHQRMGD

SMILES | inhibition of growth at 0.8 µM (VCaP [1]) | inhibition of growth at 4 µM (VCaP [2]) | growth inhibition (GI) (VCaP [3]) | inhibition of growth at 0.25 µM (VCaP [4]) | inhibition of growth at 0.125 µM (VCaP [5]) | inhibition of growth at 0.5 µM (VCaP [6]) | inhibition of growth at 1 µM (VCaP [7]) | further results
N#Cc1ccc(O[C@H]2C[C@H]3CC[C@@H](C2)N3C(=O)c2ccc(N3CCN(CCCCCCCCCOc4cccc5c4C(=O)N(C4CCC(=O)NC4=O)C5=O)CC3)cc2)cc1Cl (stereo partly drawn) | 21.9% | 30.6% | Dose-dependent effect |  |  |  |  | 
N#Cc1ccc(O[C@H]2C[C@H]3CC[C@@H](C2)N3C(=O)c2cnc(N3CCN(CCCCNc4cccc5c4C(=O)N(C4CCC(=O)NC4=O)C5=O)CC3)nc2)cc1Cl (stereo partly drawn) |  |  | Dose-dependent effect | 29% | 19% | 44.4% | 50.4% | 
N#Cc1ccc(O[C@H]2C[C@H]3CC[C@@H](C2)N3C(=O)c2cnc(N3CCN(CCCCCCNc4cccc5c4C(=O)N(C4CCC(=O)NC4=O)C5=O)CC3)nc2)cc1Cl (stereo partly drawn) |  |  | Dose-dependent effect | 23.5% | 10.1% | 32.1% | 40.5% | 
Cc1ncsc1-c1ccc([C@H](C)NC(=O)[C@@H]2C[C@@H](O)CN2C(=O)[C@@H](NC(=O)COCCN2CCN(c3ncc(C(=O)N4[C@@H]5CC[C@H]4C[C@@H](Oc4ccc(C#N)c(Cl)c4)C5)cn3)CC2)C(C)(C)C)cc1 |  |  |  | 56.4% | 40.3% | 66.1% | 69.6% | Cmax [8]: 14400 ng/mL; Activity [9]: Active; Activity [10]: Tde; Activity [11]: Non-Toxic; half-life [12]: 34.2 min; inhibition in vivo at 2.8 µM (VCaP [13]): 28%; inhibition in vivo at 8.3 µM (VCaP [14]): 44%; inhibition in vivo at 25 µM (VCaP [15]): 61%; AUC at 8 h [16]: 1770 ng·h/mL; Activity [17]: Active; MNTC at 120 h [18]: 25 µM; Activity [19]: Active; Activity [20]: inactive; Activity [21]: Toxic; mortality at 120 h [22]: 0%; Activity [23]: inactive
N#Cc1ccc(O[C@H]2C[C@H]3CC[C@@H](C2)N3C(=O)c2ccc(N3CCN(CCCCCCCCNc4cccc5c4C(=O)N(C4CCC(=O)NC4=O)C5=O)CC3)cc2)cc1Cl (stereo partly drawn) | 41.5% | 51.2% | Dose-dependent effect |  |  |  |  | inhibition of growth at 0.16 µM (VCaP [24]): 22.9%; inhibition of growth at 0.032 µM (VCaP [25]): 0.07%
N#Cc1ccc(O[C@H]2C[C@H]3CC[C@@H](C2)N3C(=O)c2ccc(N3CCN(CCCCCCCCCNc4cccc5c4C(=O)N(C4CCC(=O)NC4=O)C5=O)CC3)cc2)cc1Cl (stereo partly drawn) | 42.5% | 42.1% | Dose-dependent effect |  |  |  |  | inhibition of growth at 0.16 µM (VCaP [24]): 27.7%; inhibition of growth at 0.032 µM (VCaP [25]): 15.4%
N#Cc1ccc(O[C@H]2C[C@H]3CC[C@@H](C2)N3C(=O)c2cnc(N3CCN(CCCNc4cccc5c4C(=O)N(C4CCC(=O)NC4=O)C5=O)CC3)nc2)cc1Cl (stereo partly drawn) |  |  | Dose-dependent effect |  |  | 9.74% | 30.4% | 
N#Cc1ccc(O[C@H]2C[C@H]3CC[C@@H](C2)N3C(=O)c2ccc(N3CCN(CCCCCCCNc4cccc5c4C(=O)N(C4CCC(=O)NC4=O)C5=O)CC3)cc2)cc1Cl (stereo partly drawn) | 42.4% | 47.2% | Dose-dependent effect |  |  |  |  | inhibition of growth at 0.16 µM (VCaP [24]): 15.7%
CNC(=O)c1ccc(N2C(=S)N(c3ccc(C#N)c(C(F)(F)F)c3)C(=O)C2(C)C)cc1F [ENZALUTAMIDE] |  |  |  |  |  |  |  | mortality at 120 h, 5 µM [26]: 0%; mortality at 120 h, up to 200 µM [27]: 100%; Activity [28]: 10%; inhibition in vivo at 5 µM (VCaP [29]): 49%
N#Cc1ccc(O[C@H]2C[C@H]3CC[C@@H](C2)N3C(=O)c2cnc(N3CCN(CCCCCCCNc4cccc5c4C(=O)N(C4CCC(=O)NC4=O)C5=O)CC3)nc2)cc1Cl (stereo partly drawn) |  |  | Dose-dependent effect | 27.4% | 26.7% | 28.3% | 37.5% | 
N#Cc1ccc(O[C@H]2C[C@H]3CC[C@@H](C2)N3C(=O)c2cnc(N3CCN(CCCCCNc4cccc5c4C(=O)N(C4CCC(=O)NC4=O)C5=O)CC3)nc2)cc1Cl (stereo partly drawn) |  |  | Dose-dependent effect | 24.6% | 20% | 30.1% | 36.9% | 
C[C@@]12C[C@H](NC(=O)c3ccc(N4CCN(CCCCCCNc5ccc6c(c5)C(=O)N(C5CCC(=O)NC5=O)C6=O)CC4)cc3)C[C@]1(C)C[C@@H](Oc1ccc(C#N)c(Cl)c1)C2 (stereo partly drawn) |  |  |  | 31.8% | 30.7% | 34.5% | 35.3% | 
